For two molecules, Activity, IC50 and viability results are on record in ChEMBL document CHEMBL3813638, “Investigation of the apoptotic pathway induced by benzimidazole-oxindole conjugates against human breast cancer cells MCF-7” (Bioorg Med Chem Lett, 2016).

The subject of assay [1] is MCF7. The assay is described as follows: Induction of ROS generation in human MCF7 cells at 1 uM after 48 hrs by DCFDA fluorescent probe based flow cytometry (reference value: 5.3%). It is filed as functional. Background: A flow cytometer gives signals particle by particle.
Assay [2] deals with MCF7. Nature of the assay: Disruption of mitochondrial membrane potential in human MCF7 cells assessed as cells with vital and intact mitochondrial membrane at 1 uM after 48 hrs by JC-1 staining based flow cytometry (reference value: 94%). Format: functional.
The test system of another assay is Vero. The assay is described as follows: Cytotoxicity against African green monkey Vero cells assessed as cell growth inhibition after 48 hrs by MTT assay. Format: cell-based. Particulars: Chlorocebus sabaeus. Background: Tetrazolium dyes change colour on reduction, which living cells bring about.
In assay [3] the test system is MCF7. Nature of the assay: Induction of apoptosis in human MCF7 cells assessed as increase in PARP 89 KDa cleavage at 1 to 2 uM after 48 hrs by Western blot analysis. It is filed as functional, cell-based.
Assay [4] concerns MCF7. Nature of the assay: Induction of apoptosis in human MCF7 cells assessed as viable cells at 2 uM after 24 hrs by Annexin V-FITC/PI dual staining based flow cytometry (reference value: 94.9%). It is filed as functional. As to conditions: MCF7, 24 h, read-out: Activity.
The subject of assay [5] is MCF7. Nature of the assay: Induction of apoptosis in human MCF7 cells assessed as early apoptotic cells at 2 uM after 24 hrs by Annexin V-FITC/PI dual staining based flow cytometry (reference value: 3.5%). Format: functional.
For assay [6], the system named is MCF7. The assay is described as follows: Induction of ROS generation in human MCF7 cells at 2 uM after 48 hrs by DCFDA fluorescent probe based flow cytometry (reference value: 5.3%). It is filed as functional.
For assay [7], the system named is MCF7. The assay is described as follows: Cytotoxicity against human MCF7 cells. It is filed as functional, cell-based.
For assay [8], the system named is MCF7. The assay is described as follows: Induction of apoptosis in human MCF7 cells assessed as viable cells at 1 uM after 24 hrs by Annexin V-FITC/PI dual staining based flow cytometry (reference value: 94.9%). As to conditions: MCF7, 24 h, read-out: Activity. Format: functional.
For assay [9], the system named is MCF7. The assay is described as follows: Induction of apoptosis in human MCF7 cells assessed as early apoptotic cells at 1 uM after 24 hrs by Annexin V-FITC/PI dual staining based flow cytometry (reference value: 3.5%). Format: functional.
The subject of assay [10] is MCF7. Nature of the assay: Induction of apoptosis in human MCF7 cells assessed as suppression of Bcl-2 expression after 48 hrs by Western blot analysis. It is filed as functional, cell-based.
Assay [11] relates to MCF7. The assay is described as follows: Disruption of mitochondrial membrane potential in human MCF7 cells assessed as cells with vital and intact mitochondrial membrane at 2 uM after 48 hrs by JC-1 staining based flow cytometry (reference value: 94%). It is filed as functional.
The test system of assay [12] is MCF7. Nature of the assay: Induction of apoptosis in human MCF7 cells assessed as increase in caspase-9 activation at 1 to 2 uM after 48 hrs by Western blot analysis. It is filed as functional, cell-based. On the technique in general: Immunoblotting shows a protein as a band on a membrane.
The next assay relates to HEK293. Nature of the assay: Cytotoxicity against human HEK293 cells assessed as cell growth inhibition after 48 hrs by MTT assay. It is filed as cell-based. Particulars: HEK293, 48 h.
Assay [13] has as its system MCF7. Nature of the assay: Induction of apoptosis in human MCF7 cells assessed as necrotic cells at 2 uM after 24 hrs by Annexin V-FITC/PI dual staining based flow cytometry (reference value: 0.1%). It is filed as functional.
In assay [14] the test system is MCF7. The assay is described as follows: Induction of apoptosis in human MCF7 cells assessed as increase in cytochrome c levels at 1 to 2 uM after 48 hrs by Western blot analysis. It is filed as functional, cell-based.
In assay [15] the test system is MCF7. The assay is described as follows: Induction of apoptosis in human MCF7 cells assessed as necrotic cells at 1 uM after 24 hrs by Annexin V-FITC/PI dual staining based flow cytometry (reference value: 0.1%). Format: functional.
Assay [16] relates to MCF7. Nature of the assay: Induction of apoptosis in human MCF7 cells assessed as increase in Bax expression after 48 hrs by Western blot analysis. It is filed as functional, cell-based.
Assay [17] deals with MCF7. Nature of the assay: Induction of apoptosis in human MCF7 cells assessed as late apoptotic cells at 1 uM after 24 hrs by Annexin V-FITC/PI dual staining based flow cytometry (reference value: 1.5%). It is filed as functional.
Assay [18] relates to MCF7. Nature of the assay: Induction of apoptosis in human MCF7 cells assessed as late apoptotic cells at 2 uM after 24 hrs by Annexin V-FITC/PI dual staining based flow cytometry (reference value: 1.5%). Format: functional.

Structures are written as SMILES. Active and inactive are the calls of the source. No cut-off for these calls is given here.

Usually IC50 stands for the concentration needed to halve the response being measured. As for `O=C1Nc2cc(Cl)ccc2/C1=C/c1ccc2nc(-c3cc(F)cc(F)c3)[nH]c2c1`, the Activity in the assay on MCF7 [1] was 20.3%; in the assay with MCF7 [2], 83.1%; with MCF7 [5] it was 33%; in the assay with MCF7 [6] it was 30%; in the assay on MCF7 [9] it was 32.5%; with MCF7 [10], “Dose-dependent effect”. The Activity with MCF7 [11] is 61.8%; in the assay with MCF7 [13], 1.2%; with MCF7 [15], 1.8%; in the assay with MCF7 [16], “Dose-dependent effect”; in the assay with MCF7 [17], 23.4%; in the assay with MCF7 [18] it was 34.9%. The results for the IC50 in the assay with Vero, in the assay on MCF7 [7] and in the assay on HEK293 were 97.9 µM, 1.97 µM and 147 µM, respectively. Further, the result in the assay with MCF7 [3], with MCF7 [12] and in the assay with MCF7 [14] was Active. Also, in the assay with MCF7 [4], the viability at 2 µM amounted to 31%. Also, the viability at 1 µM in the assay with MCF7 [8] came to 42.3%.

Take `COc1ccc(-c2nc3ccc(/C=C4\C(=O)Nc5ccc(Cl)cc54)cc3[nH]2)cc1`: the Activity is 21.9% in the assay on MCF7 [1]; 80.7% in the assay with MCF7 [2]; 35.4% with MCF7 [5]; 33.8% with MCF7 [6]; 26.3% with MCF7 [9]; “Dose-dependent effect” with MCF7 [10]. For the same molecule, the Activity was 57.7% in the assay with MCF7 [11]; 1.1% in the assay on MCF7 [13]; 1.6% with MCF7 [15]; “Dose-dependent effect” in the assay with MCF7 [16]; 31.3% in the assay on MCF7 [17]; 36.5% in the assay with MCF7 [18]. Moreover, the IC50 with Vero was 109 µM; in the assay with MCF7 [7] it was 1.84 µM; in the assay with HEK293, 170 µM. Also, the outcome with MCF7 [3], in the assay with MCF7 [12] and in the assay with MCF7 [14] was Active. The viability at 2 µM in the assay with MCF7 [4] was 27%. For the same molecule, the viability at 1 µM in the assay with MCF7 [8] came out at 40.7%.
